In BindingDB's records for doi:10.1021/jm000048n (Washington State University, 2000) one finds Ki data, which are given here for 1 compound.

The structures appear in SMILES notation.

Data set [1] deals with Cytochrome P450 2C9 (Homo sapiens, UniProt P11712). Kind of data set: (§1) Binding affinity was measured on Cytochrome P450 2C9.
The target of data set [2] is {'v': 'CYP2C9', 'o': 'p', 'q': 'Cytochrome P450 2C9 (single_protein)'} (Homo sapiens, UniProt P11712). The data set is described as §1.

The term Ki denotes the dissociation constant of the complex between target and ligand, obtained from inhibition or displacement. Read a low Ki as a stronger hold on the target. `CC[C@H](c1ccccc1)c1c(O)c2ccccc2oc1=O`: the Ki in data set [1] and in data set [2] was 500 nM throughout.
